# Data published in patent US4511560A, “Antibiotic substances DC-45, and their use as medicaments” (Kyowa Hakko Kogyo Kabushiki Kaisha, priority 1979, dated 1985).
# Key:
# Sarcoma 180 solid tumour = experiment: Therapeutic effect on Sarcoma 180 solid tumour; assay type: in vivo, mice (male; ddy-strain); conditions: 5.6 mg/kg, abdominally, single, day 7
# Experimental: Mice (male; ddy-strain; weight about 20 g; each group consisting of 6 mice) were used as test animals. Sarcoma 180 tumour cells (each 5×10^6cells) were subcutaneously implanted into each mouse at the armpit. 24 hours after this, a phosphate buffered physiological solution of sodium chloride (each 0.2 ml) was intraperitoneally administered to each mouse, a given amount of one of the substances DC-45-A, DC-45-B1 and DC-45-B2 being contained in each solution so that a different substance is administered to each group of mice. The said phosphate buffer contained NaCl (0.8 g/dl), KCl (0.02 g/dl), […] (1.15 g/dl) and KH2 PO4 (0.02 g/dl). For comparison purpose, a similar phosphate buffered solution containing mitomycin C (0.2 ml) was abdominally administered to the mice of another group 24 hours after the implantation of the tumour cells. Table 3 indicates the volume of the tumour (mean value in mm^3) and T/C (mean value; the tumour volume of the animal treated with the test compound/the tumour volume of the control animal treated with 0.2 ml of the phosphate buffered solution of sodium chloride, both being determined 7 days after the implantation.
# [1] = system: Lymphocytic leukaemia P-388 tumour; experiment: Anti-tumour activity on Lymphocytic leukaemia P-388 tumour; assay type: in vivo, mice (male; CDF1 strain); conditions: 5.6 mg/kg, abdominally
# Experimental: Mice (male; CDF1 strain; weight about 22 g; each group consisting of 5 mice) were used as the test animals. Lymphocytic leukaemia P-388 tumour cells (each 1×10^6 cells) were intraperitoneally implanted into each mouse. 24 hours after this, a phosphate buffered physiological solution of sodium chloride (each 0.2 ml) was intraperitioneally injected once into each mouse, a given amount of one substance being contained in each solution so that a different substance is administered to each group of mice. For comparison, a similar phosphate buffered solution of sodium chloride containing mitomycin C was admnistered abdominally to each mouse of a further control group. Table 4 indicates the average survival time in days and T/C (mean value of the survival days of the animals treated with the test compound/mean value of the survival days of the control animals treated with 0.2 ml of the phosphate buffered solution of sodium chloride).
structure (smiles),measurement,setting,value
"CO[C@@]12[C@H](COC(N)=O)C3=C(C(=O)C(C)=C(N)C3=O)N1C[C@@H]1N[C@@H]12 [Mitomycin C, mitomycin C]",T/C (tumour volume),Sarcoma 180 solid tumour,0.20
same,Volume of tumour (mean value),Sarcoma 180 solid tumour,282 mm^3
same,Survival days,[1],18.0 ± 1.4 days
same,T/C (survival days),[1],1.88
